Results taken from patent publication US8901129B2, “Methods of facilitating neural cell survival using GDNF family ligand (GFL) mimetics or RET signaling pathway activators” (GeneCode AS, priority 2009, dated 2014).

Legend:
[1] = test system: GFRα1/RET-expressing cells; assay: Reporter-gene luciferase activity assay, dose-response (FIG. 5); type: cell-based; conditions: 1-50 μM, 24 h
Experimental: Generation of stable cell lines. MG87RET murine fibroblast were plated on […] dishes and transfected with 4 μg of G4-Luc, Gal4-Elk (Baloh et al., 2000) and GFRα1 expressing plasmid (“αLUC” cells) or empty vector (“NOα” cells) containing neomycin-resistance gene in ratio 4:1:1 using Lipofectamine 2000 (Invitrogen) for DNA delivery as described by manufacturer. The following day, cells were trypsinized and plated in low density on 10-cm tissue culture dishes. Stable transformants were selected in the presence of 500-750 μg/ml geneticin (Invitrogen). Established cell lines were maintained in DMEM, 10% fetal bovine serum (FBS), 100 μg/ml Normocin (Invivogene), 2 μg/ml of puromycin, 500 μg/ml of geneticin, 15 mM HEPES, pH 7.2. Pathdetect Elk-1 system and human GFRα1-expressing plasmid (“Strat-Luc” cells) or empty vector (control cell line “NOStratis”) cells were selected and maintained in the DMEM, 10% FBS, 100 μg/ml Normocin (Invivogene), 2 μg/ml of puromycin, 500 μg/ml of G418, 2 μg/ml of blasticidin S, 15 mM HEPES, pH 7.2.
Cells were plated on 96-well plates (or 384-well) in cell density 20 000 (or 5 000 for 384-well format) cells per well in DMEM, 10% FBS, 100 μg/ml Normocin, 2 μg/ml puromycin, 500 μg/ml of G418, 15 mM HEPES, pH 7.2 one day before assay. The following day, the compounds were added to a final concentration of 1-50 μM. Structures of the compounds are shown in the description of FIG. 5, above. Cells were allowed to produce luciferase for 24 h, then lysed in 20 μl of 1×Cell culture lysis reagent (Promega) and freeze-thawed once to ensure complete lysis. Then 5 μl of the lysate was mixed (on ice) with 20 μl of luciferase assay substrate (Promega) in a well of black Isoplate (PerkinElmer). Luminescence was counted on MicroBeta 2 counter (PerkinElmer) twice. Data are presented as fold induction, where the corresponding concentration of DMSO was used as a reference.

6-OHDA-treated rats = assay: Side effects / toxic effects after intrastriatal injection in 6-OHDA-treated rats; type: in vivo; conditions: injected intrastriatally
Experimental: GDNF mimetics compounds, GDNF or vehicle is administered to the striatum at 3 weeks after the exposure to the neurotoxin 6-OHDA. The selective damage to dopaminergic neurons in the SNc, as well as striatal levels of dopamine and its metabolites are evaluated 12 weeks after the injection of 6-OHDA with tyrosine hydroxylase (TH) immunohistochemistry and HPLC, respectively. In addition, the behavioral impairment of rats is evaluated by forelimb asymmetry test (cylinder test), amphetamine induced rotation asymmetry test and Y-maze test for stereotypic spontaneous rotation deficits.
On day 21, rats are re-anesthetized with 5% isoflurane (in 70% N2O and 30% O2; flow 300 ml/min) and placed in a stereotactic frame. During the operation concentration of anesthetic is reduced to 1-1.5%. The rectal temperature is maintained at 37.0±1.0° C. with a homeothermic blanket system. The right brain hemisphere is exposed through a small craniectomy to the skull. A stereotaxic injection of the test compound, GDNF or vehicle is made into the right striatum. Each dosing solution is infused at a speed of 1 μl/min and is equally distributed between 4 sites at the following coordinates: AP+1.0, ML+2.8, DV−6.0, −5.5, −5.0 and −4.4 mm. The cannula is left in place for another 5 min before being withdrawn. The hole in the skull is subsequently filled with repair material and the skin is closed and disinfected. The rats are allowed to recover from anesthesia and are carefully monitored for possible post surgical complications. The animals are returned to the home cages with ad libitum access to food and water.
Animals are monitored daily by laboratory personnel. […] Definitions of acceptable endpoints include: no spontaneous movements and inability to drink or eat in 24-h observation period, massive bleeding, spontaneous inflammation, missing anatomy, swelling or tumors larger than 20 mm, and inability to right itself in 30 sec period.

GFRα1/RET = target: T1, GFRα1/RET (Homo sapiens, UniProt P07949+P56159); assay: RET phosphorylation by BT compounds, IP and Western blotting (FIG. 6A); type: cell-based; conditions: 100 μM, 15 min; MG87 RET fibroblasts transfected with GFRα1
T1 construct: Full-length human GFRα1 cDNA (Sidorova et al., unpublished) subcloned in pcDNA6; expressed in transfected cells; host or cells: MG87RET murine fibroblasts transiently transfected with GFRα1
T1 sequence (P56159 25-429 limits assumed, species assumed): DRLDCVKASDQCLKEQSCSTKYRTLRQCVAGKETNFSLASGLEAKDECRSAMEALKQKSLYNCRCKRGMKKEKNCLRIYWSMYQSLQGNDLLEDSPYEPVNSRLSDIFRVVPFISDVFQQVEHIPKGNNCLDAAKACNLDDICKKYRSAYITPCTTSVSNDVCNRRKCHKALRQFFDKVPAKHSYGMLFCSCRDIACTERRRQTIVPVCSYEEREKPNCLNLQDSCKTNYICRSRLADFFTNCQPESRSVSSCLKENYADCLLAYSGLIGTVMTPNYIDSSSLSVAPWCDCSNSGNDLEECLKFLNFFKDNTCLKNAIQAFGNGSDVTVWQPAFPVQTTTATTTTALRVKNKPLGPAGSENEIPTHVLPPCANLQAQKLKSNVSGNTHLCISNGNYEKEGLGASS
T1 sequence (P07949 29-1114, species assumed): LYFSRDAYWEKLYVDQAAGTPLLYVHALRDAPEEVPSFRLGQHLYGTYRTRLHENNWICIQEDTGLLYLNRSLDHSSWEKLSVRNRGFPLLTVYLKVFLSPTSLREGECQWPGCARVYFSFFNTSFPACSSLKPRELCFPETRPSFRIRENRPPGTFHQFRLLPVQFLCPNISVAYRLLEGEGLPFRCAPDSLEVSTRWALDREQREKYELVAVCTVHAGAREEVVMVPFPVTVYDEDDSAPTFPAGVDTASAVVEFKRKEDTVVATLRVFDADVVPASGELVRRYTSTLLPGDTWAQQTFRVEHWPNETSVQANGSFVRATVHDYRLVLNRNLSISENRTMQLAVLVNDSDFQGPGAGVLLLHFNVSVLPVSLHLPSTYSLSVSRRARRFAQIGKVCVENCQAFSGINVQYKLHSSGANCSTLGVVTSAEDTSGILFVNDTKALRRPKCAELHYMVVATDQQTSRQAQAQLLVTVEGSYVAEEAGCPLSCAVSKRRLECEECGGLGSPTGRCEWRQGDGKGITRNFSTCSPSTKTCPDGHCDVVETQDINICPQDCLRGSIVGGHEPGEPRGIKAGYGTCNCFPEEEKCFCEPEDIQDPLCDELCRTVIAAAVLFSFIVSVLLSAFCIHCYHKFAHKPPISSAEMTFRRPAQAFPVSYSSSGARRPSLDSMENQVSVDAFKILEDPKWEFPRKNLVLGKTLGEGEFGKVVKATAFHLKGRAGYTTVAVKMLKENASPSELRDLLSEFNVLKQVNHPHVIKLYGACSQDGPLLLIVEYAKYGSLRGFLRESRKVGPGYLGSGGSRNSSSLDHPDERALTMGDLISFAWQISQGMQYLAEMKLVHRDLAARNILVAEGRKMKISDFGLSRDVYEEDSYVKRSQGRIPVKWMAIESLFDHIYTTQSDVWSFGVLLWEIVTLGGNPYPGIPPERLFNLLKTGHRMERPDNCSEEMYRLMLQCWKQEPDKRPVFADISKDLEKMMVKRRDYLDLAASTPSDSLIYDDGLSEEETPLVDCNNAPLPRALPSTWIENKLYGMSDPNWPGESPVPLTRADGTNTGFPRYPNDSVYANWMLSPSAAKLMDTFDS
Experimental: (§1) MG87RET cells were plated on 35 mm tissue culture dishes the day before the experiment. Cells were transfected with GFRα1, GFRα3 or with an vector encoding for GFP. On the day of the experiment cells were starved for 4 hours in serum-free DMEM and stimulated with the investigated compounds (structures shown in the description of FIG. 6, above) at 100 μM concentration or with 100 ng/ml of GDNF or ARTN (positive control) for 15 min. Then cells were washed once with ice-cold PBS containing 1 mM Na3VO4 and lysed on ice in 1 ml per well of RIPA-modified buffer (50 mM Tris-HCl, pH 7.4, 150 mM NaCl, 1 mM EDTA, 1% NP-40, 1% TX-100, 10% glycerol, EDTA-free protease inhibitor cocktail (Roche), 1 mM Na3VO4, 2.5 mg/ml of sodium deoxycholate, 1 mM PMSF. Ret was immunoprecipitated by anti-RET C-20 antibodies (Santa-Cruz Biotechnology, Inc.). Precipitated proteins were resolved on 7.5% SDS-PAGE and then transferred onto a nitrocellulose membrane. Membrane was blocked for 15 min at room temperature by 10% nonfat dry milk in TBS-T and probed with anti-phosphotyrosine antibodies (clone 4G10, Upstate Biotechnology) diluted 1:1000 in TBS-T containing 3% nonfat dry milk for 2 hours at room temperature. The membranes were washed 3 times for 5 min in TBS-T and incubated in the 1:3000 solution of secondary anti-mouse antibodies conjugated with HRP (DAKO) diluted in TBS-T containing 3% nonfat dry milk for 45 min at room temperature. Membranes were washed with TBS-T for 5×10 min. Stained bands were visualized with ECL reagent (Pierce) using LAS3000 imaging program. To confirm equal loading of the proteins, membranes were probed with anti-RET C-20 antibodies (1:500, Santa-Cruz Biotechnology, inc.) after stripping. We used secondary anti-goat antibodies conjugated with HRP (1:1500, DAKO) to detect C-20.

GFRα3/RET = target: T2, GFRα3/RET (Homo sapiens, UniProt O60609+P07949); assay: RET phosphorylation by BT compounds, IP and Western blotting (FIG. 6B); type: cell-based; conditions: 100 μM, 15 min; MG87 RET fibroblasts transfected with GFRα3
T2 construct: Full-length human GFRα3 cDNA (Wang et al., 2006); expressed in transfected cells; host or cells: MG87RET murine fibroblasts transiently transfected with GFRα3
T2 sequence (O60609 32-374 limits assumed): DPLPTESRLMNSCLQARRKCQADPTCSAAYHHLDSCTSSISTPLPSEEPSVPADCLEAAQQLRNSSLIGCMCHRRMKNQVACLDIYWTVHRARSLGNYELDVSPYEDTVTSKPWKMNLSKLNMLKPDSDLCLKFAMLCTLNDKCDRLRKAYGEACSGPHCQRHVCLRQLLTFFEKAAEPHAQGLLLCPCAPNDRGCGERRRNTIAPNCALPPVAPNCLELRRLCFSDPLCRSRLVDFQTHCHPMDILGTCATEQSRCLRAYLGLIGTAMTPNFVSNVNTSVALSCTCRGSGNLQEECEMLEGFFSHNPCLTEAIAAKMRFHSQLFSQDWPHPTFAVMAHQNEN
T2 sequence (P07949 29-1114): as the sequence (P07949 29-1114, species assumed) above
Experimental: as §1

## CCN(CC)S(=O)(=O)c1ccc(OC)c(N2CCN(C(=O)c3cc(F)ccc3C(F)(F)F)CC2)c1 [BT13]
[1]
  induction of luciferase expression: in a dose-dependent manner induce luciferase expression
6-OHDA-treated rats
  toxic effects in behavioral assays: did not cause toxic effects
GFRα1/RET
  RET phosphorylation via GFRα1: strongly activated RET
GFRα3/RET
  RET phosphorylation via GFRα3: strongly activated RET

## COc1ccc(S(=O)(=O)N2CCc3ccccc3C2)cc1N1CCN(C(=O)c2cc(F)ccc2C(F)(F)F)CC1 [BT16]
[1]
  induction of luciferase expression: in a dose-dependent manner induce luciferase expression
6-OHDA-treated rats
  toxic effects in behavioral assays: did not cause toxic effects
GFRα1/RET
  RET phosphorylation via GFRα1: strongly activated RET
GFRα3/RET
  RET phosphorylation via GFRα3: likely the weaker GFRα3/RET agonists

## COc1cc2c(cc1OC)CN(S(=O)(=O)c1ccc(OC)c(N3CCN(C(=O)c4cc(F)ccc4C(F)(F)F)CC3)c1)CC2 [BT18]
[1]
  induction of luciferase expression: active
6-OHDA-treated rats
  toxic effects in behavioral assays: did not cause toxic effects
GFRα1/RET
  RET phosphorylation via GFRα1: likely the weaker GFRα1/RET agonists
GFRα3/RET
  RET phosphorylation via GFRα3: likely the weaker GFRα3/RET agonists
